Test results published in article PMC1084349 (BMC Neuroscience, 2005).
Where a SMILES comes first, the peptide text is derived from it.

What was measured:
[1] = tested on: human TAS1R2-TAS1R3 heteromer; details: cited from earlier work
rTas1r2-rTas1r3 = molecular target: T1, rTas1r2-rTas1r3 (Rattus norvegicus, UniProt Q923K1+Q9Z0R7); test: Calcium mobilization (FLIPR) in transfected HEK293T-Gα16gust44 cells, rat sweet receptor; details: asp 15 mM; cyc 30 mM; neo 0.1 mM; sac 10 mM; suc 100 mM; stev 1 mM
T1 sequence (Q9Z0R7 20-843): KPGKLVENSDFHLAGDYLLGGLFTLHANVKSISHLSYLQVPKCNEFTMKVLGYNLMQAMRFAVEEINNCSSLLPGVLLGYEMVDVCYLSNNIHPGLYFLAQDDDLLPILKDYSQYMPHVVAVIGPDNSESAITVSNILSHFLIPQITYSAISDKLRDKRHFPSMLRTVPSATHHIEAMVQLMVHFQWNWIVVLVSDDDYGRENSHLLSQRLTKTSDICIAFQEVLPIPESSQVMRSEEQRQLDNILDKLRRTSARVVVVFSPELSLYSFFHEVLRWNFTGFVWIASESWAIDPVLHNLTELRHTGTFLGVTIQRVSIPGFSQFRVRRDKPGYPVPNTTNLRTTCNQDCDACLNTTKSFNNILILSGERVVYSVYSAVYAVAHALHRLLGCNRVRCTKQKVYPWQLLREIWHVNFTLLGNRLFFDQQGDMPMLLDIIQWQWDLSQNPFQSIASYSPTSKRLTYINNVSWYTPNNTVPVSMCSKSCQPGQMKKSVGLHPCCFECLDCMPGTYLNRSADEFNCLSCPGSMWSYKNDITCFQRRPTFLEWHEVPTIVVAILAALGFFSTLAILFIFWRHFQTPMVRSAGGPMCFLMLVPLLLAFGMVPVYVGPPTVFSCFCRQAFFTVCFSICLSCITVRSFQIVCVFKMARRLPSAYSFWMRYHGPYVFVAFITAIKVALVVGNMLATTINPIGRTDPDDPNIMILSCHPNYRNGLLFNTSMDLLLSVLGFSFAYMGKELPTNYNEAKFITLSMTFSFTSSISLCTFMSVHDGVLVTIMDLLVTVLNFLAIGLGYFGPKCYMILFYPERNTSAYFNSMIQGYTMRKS
T1 sequence (Q923K1 21-858): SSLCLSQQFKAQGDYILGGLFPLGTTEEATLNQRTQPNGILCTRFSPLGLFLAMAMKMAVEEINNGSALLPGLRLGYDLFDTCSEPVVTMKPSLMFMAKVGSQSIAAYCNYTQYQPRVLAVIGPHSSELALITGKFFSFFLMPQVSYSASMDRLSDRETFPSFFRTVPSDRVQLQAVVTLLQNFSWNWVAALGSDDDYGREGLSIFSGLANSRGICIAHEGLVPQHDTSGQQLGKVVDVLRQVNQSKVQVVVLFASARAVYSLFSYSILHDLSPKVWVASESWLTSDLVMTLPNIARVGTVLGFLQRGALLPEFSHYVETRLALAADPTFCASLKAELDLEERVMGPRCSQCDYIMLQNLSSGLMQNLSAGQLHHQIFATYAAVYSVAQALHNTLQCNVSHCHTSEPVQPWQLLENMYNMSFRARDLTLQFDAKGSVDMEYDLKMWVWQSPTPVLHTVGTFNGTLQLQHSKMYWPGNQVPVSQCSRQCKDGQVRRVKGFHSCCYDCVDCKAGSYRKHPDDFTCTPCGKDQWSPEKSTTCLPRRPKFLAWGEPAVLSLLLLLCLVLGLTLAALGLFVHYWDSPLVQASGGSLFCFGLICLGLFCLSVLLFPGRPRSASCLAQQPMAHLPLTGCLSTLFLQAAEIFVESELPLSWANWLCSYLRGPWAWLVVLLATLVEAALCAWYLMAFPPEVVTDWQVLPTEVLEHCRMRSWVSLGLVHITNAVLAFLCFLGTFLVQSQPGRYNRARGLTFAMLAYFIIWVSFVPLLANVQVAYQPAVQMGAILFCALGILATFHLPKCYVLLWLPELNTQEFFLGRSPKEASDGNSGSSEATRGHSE

rTas1r2-hTAS1R3 = molecular target: T2, rTas1r2-hTAS1R3 (UniProt Q7RTX0+Q9Z0R7); test: Calcium mobilization (FLIPR), interspecies combination; details: asp 15 mM; cyc 30 mM; neo 0.1 mM; sac 10 mM; suc 100 mM; stev 1 mM; markedly reduced amplitudes
T2 sequence (Q9Z0R7 20-843): T1 sequence (Q9Z0R7 20-843)
T2 sequence (Q7RTX0 21-852): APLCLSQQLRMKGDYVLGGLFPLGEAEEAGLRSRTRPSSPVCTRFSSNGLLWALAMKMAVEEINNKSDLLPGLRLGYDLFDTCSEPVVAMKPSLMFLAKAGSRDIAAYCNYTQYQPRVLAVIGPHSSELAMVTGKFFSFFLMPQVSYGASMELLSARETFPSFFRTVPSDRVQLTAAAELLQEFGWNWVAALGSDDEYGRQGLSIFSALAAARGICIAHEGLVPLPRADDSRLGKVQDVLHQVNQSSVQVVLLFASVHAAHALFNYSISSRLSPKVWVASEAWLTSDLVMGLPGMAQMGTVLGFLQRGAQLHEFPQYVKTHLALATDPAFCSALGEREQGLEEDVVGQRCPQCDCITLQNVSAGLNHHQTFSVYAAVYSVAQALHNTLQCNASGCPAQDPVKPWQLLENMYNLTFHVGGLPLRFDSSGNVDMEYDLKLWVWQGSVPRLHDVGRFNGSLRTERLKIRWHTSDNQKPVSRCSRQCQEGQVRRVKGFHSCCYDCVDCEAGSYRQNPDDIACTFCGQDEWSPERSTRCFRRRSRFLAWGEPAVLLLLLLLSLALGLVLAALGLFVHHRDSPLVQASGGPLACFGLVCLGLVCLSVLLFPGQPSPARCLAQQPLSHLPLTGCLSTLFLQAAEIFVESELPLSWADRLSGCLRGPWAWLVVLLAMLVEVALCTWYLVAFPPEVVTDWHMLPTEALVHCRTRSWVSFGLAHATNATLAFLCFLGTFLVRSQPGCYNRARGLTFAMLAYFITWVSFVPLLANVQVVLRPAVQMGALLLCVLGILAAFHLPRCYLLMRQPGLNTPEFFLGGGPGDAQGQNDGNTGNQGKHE

Row | Structure (SMILES) | activation of receptor (calcium response) (rTas1r2-rTas1r3) | activation of receptor (calcium response) (rTas1r2-hTAS1R3) | activation of heteromer [1]
1 | COC(=O)[C@H](Cc1ccccc1)NC(=O)[C@@H](N)CC(=O)O [aspartame] (HELM PEPTIDE1{D.F.[CO[*:1]]}$$$$V2.0) | did not activate | failed to activate | only activate the human
2 | O=S(=O)(O)NC1CCCCC1 [cyclamate] | did not activate | clearly responded | only activate the human
3 | COc1ccc(CCC(=O)c2c(O)cc(O[C@@H]3O[C@H](CO)[C@@H](O)[C@H](O)[C@H]3O[C@@H]3O[C@@H](C)[C@H](O)[C@@H](O)[C@H]3O)cc2O)cc1O [neohesperidine dihydrochalcone] | did not activate | clearly responded | –

The next lines start with results.

Row | activation of receptor (calcium response) (rTas1r2-rTas1r3) | activation of receptor (calcium response) (rTas1r2-hTAS1R3) | Structure (SMILES) | activation of heteromer [1]
4 | robustly activated | failed to activate | C=C1C[C@@]23CC[C@H]4[C@@](C)(CCC[C@@]4(C)C(=O)O[C@@H]4O[C@H](CO)[C@@H](O)[C@H](O)[C@H]4O)[C@@H]2CC[C@]1(O[C@@H]1O[C@H](CO)[C@@H](O)[C@H](O)[C@H]1O[C@@H]1O[C@H](CO)[C@@H](O)[C@H](O)[C@H]1O)C3 [stevioside] | –
5 | robustly activated | failed to activate | OC[C@H]1O[C@@](CO)(O[C@H]2O[C@H](CO)[C@@H](O)[C@H](O)[C@H]2O)[C@@H](O)[C@@H]1O [sucrose] | –
